We go through nine compounds from PubChem BioAssay (NCI).

Some test systems named below: EKVX NSCLC; HT29 colon; NCI/ADR-RES ovarian; OVCAR-8 ovarian; RXF 393 renal; SF-539 CNS; SK-MEL-28 melanoma; SK-OV-3 ovarian; SN12C renal; SNB-19 CNS.
Holding throughout (assay): NCI-60 cell line screen, 48 h

Values joined by “and” are separate entries in the source; they are usually repeats but may differ in a detail not shown here. Identical values can stand only once.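 The compound was tested at five concentrations on cells cultured in 96-well plates, with a 48-hour exposure period. GI50 = concentration required for 50% inhibition of growth. TGI: total growth inhibition.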 Where a SMILES comes first, the peptide text is derived from it. The star is where a group is joined. Palmitoyl = CCCCCCCCCCCCCCCC(=O)* Where only a bound is given, the exact number is not on record here.

For the compound `COc1ccc(C[C@H]2COC(=O)[C@@H]2Cc2cc(OC)c(OC)c(OC)c2)cc1OC`, the TGI in the assay with EKVX NSCLC, in the assay on HT29 colon, in the assay with NCI/ADR-RES ovarian, in the assay on OVCAR-8 ovarian, in the assay with RXF 393 renal and in the assay with SF-539 CNS was above 100 µM in each case. In addition, the TGI in the assay with SK-MEL-28 melanoma, with SK-OV-3 ovarian, in the assay with SN12C renal and in the assay on SNB-19 CNS was above 100 µM each time.
Take `C=CCN1C(=O)/C(=C/c2ccc(Cl)cc2)N=C1SC1OC(COC(C)=O)C(OC(C)=O)C(OC(C)=O)C1OC(C)=O` (stereo unspecified): the TGI in the assay with EKVX NSCLC is above 100 µM; in the assay on HT29 colon, above 100 µM; in the assay on NCI/ADR-RES ovarian, above 100 µM; with OVCAR-8 ovarian, 36 µM and 81.4 µM; in the assay with RXF 393 renal, 19.5 µM and 47.5 µM; with SF-539 CNS, above 100 µM. In addition, the TGI in the assay on SK-MEL-28 melanoma was above 100 µM; in the assay with SK-OV-3 ovarian it was > 61.8 µM and 65.6 µM; in the assay on SN12C renal, above 100 µM; in the assay on SNB-19 CNS, 87.6 µM. Also, the GI50 with NCI/ADR-RES ovarian was 11.5 µM and 31.7 µM; with RXF 393 renal, 4.94 µM and 11.6 µM.
Turning to `Clc1ncc(C(Cl)(Cl)Cl)nc1-c1ccccc1`, the TGI in the assay with EKVX NSCLC is 6.02 µM; in the assay with HT29 colon, 3.65 µM; in the assay on NCI/ADR-RES ovarian it was 57.7 µM; in the assay with OVCAR-8 ovarian it was 7.16 µM; with RXF 393 renal it was 3.3 µM; in the assay on SF-539 CNS, 5.05 µM. For the same compound, the TGI in the assay on SK-MEL-28 melanoma amounted to 60.6 µM; in the assay on SK-OV-3 ovarian, 24.3 µM; with SN12C renal, 8.57 µM; with SNB-19 CNS, 3.19 µM.
On to `Cn1c(=O)c2[nH]c(N/N=C3/SCC(=O)N3Cc3ccccc3)nc2n(C)c1=O`, for which the TGI in the assay on EKVX NSCLC, in the assay on HT29 colon, in the assay with NCI/ADR-RES ovarian, in the assay on OVCAR-8 ovarian, with RXF 393 renal and in the assay with SF-539 CNS was above 100 µM in each case. In addition, the TGI in the assay with SK-MEL-28 melanoma, in the assay on SK-OV-3 ovarian, with SN12C renal and in the assay on SNB-19 CNS was above 100 µM in each case.
As to `COc1cc(C2S/C(=C/c3ccccc3)C(=O)N2c2ccc(Cl)cc2)cc(OC)c1OC` (stereo unspecified), the TGI was above 100 µM with EKVX NSCLC; above 75.9 µM with HT29 colon; above 100 µM in the assay with NCI/ADR-RES ovarian; above 100 µM in the assay with OVCAR-8 ovarian; above 100 µM in the assay with RXF 393 renal; above 100 µM in the assay on SK-MEL-28 melanoma. In addition, the TGI with SK-OV-3 ovarian, in the assay with SN12C renal and with SNB-19 CNS was above 100 µM in each case.
Consider `CC1=CC(c2ccccc2)n2c(nc3cc4ccccc4cc32)N1` (stereo unspecified), for which the TGI in the assay with EKVX NSCLC, with HT29 colon, in the assay on NCI/ADR-RES ovarian, in the assay on OVCAR-8 ovarian, in the assay with RXF 393 renal and in the assay with SF-539 CNS was above 100 µM each time. The TGI in the assay with SK-MEL-28 melanoma, in the assay on SK-OV-3 ovarian and in the assay on SNB-19 CNS was above 100 µM in each case.
As to `CC(C)CC1c2[nH]c3ccccc3c2C[C@H]2C(=O)NC(COC(C)(C)C)C(=O)N12` (stereo partly specified), the TGI in the assay with EKVX NSCLC is 71.7 µM; in the assay on HT29 colon it was 38.3 µM; in the assay with NCI/ADR-RES ovarian, 56.7 µM; with OVCAR-8 ovarian, above 100 µM; with RXF 393 renal, 41 µM; with SK-MEL-28 melanoma it was above 100 µM. For the same compound, the TGI in the assay with SK-OV-3 ovarian was above 100 µM; in the assay on SN12C renal, 47.9 µM; in the assay on SNB-19 CNS it was above 100 µM.
As to `COc1ccc([C@@]23CCC(=O)C[C@@H]2N(C)CC3)cc1OC`, the TGI with EKVX NSCLC, with HT29 colon, in the assay with NCI/ADR-RES ovarian, with OVCAR-8 ovarian, in the assay with RXF 393 renal and in the assay with SF-539 CNS was above 100 µM each time. Also, the TGI in the assay with SK-MEL-28 melanoma, in the assay with SK-OV-3 ovarian and in the assay with SNB-19 CNS was above 100 µM each time.
In the case of `CCCCCCCCCCCCCCCC(=O)NC(CCCCN)C(=O)NCC(=O)NC(Cc1ccccc1)C(=O)N1CCCC1C(=O)NC(CO)C(=O)NC(Cc1ccc(O)cc1)C(=O)NC(CCCCN)C(=O)NC(CC(C)C)C(=O)NC(CCCN=C(N)N)C(=O)N1CCCC1C(=O)NCC(N)=O` (stereo unspecified) (Palmitoyl-KGFPSYKLRPG-NH2; configuration not given here), the GI50 was 18.8 µM in the assay on EKVX NSCLC; 17 µM in the assay on HT29 colon; 20.7 µM in the assay with NCI/ADR-RES ovarian; 21.9 µM in the assay on OVCAR-8 ovarian; 27.6 µM with RXF 393 renal; 21.1 µM in the assay with SF-539 CNS. The GI50 is 28.6 µM in the assay with SK-MEL-28 melanoma, 23 µM in the assay on SK-OV-3 ovarian and 26.6 µM in the assay with SNB-19 CNS. Further, the TGI in the assay on EKVX NSCLC stood at 44 µM; in the assay with HT29 colon, 30.7 µM; with NCI/ADR-RES ovarian, 42.9 µM; with OVCAR-8 ovarian it was 52.8 µM; in the assay on RXF 393 renal, 69.4 µM; with SF-539 CNS, 48.1 µM. The TGI was determined as 68.2 µM in the assay with SK-MEL-28 melanoma, 44.7 µM in the assay with SK-OV-3 ovarian and 54.9 µM with SNB-19 CNS.
